Test results taken from PMC3225262, “PeptX: Using Genetic Algorithms to optimize peptides for MHC binding” (BMC Bioinformatics, 2011).
Where no end group is shown, it is not given here.

The sequences below were run against HLA-A*02:01 (Homo sapiens, UniProt P04439, D140Y/D185E/D98H/E176V/E277Q/G131W/G231S/I119V/I121R/I166T/I218V/L300P/L318F/N151K/N90K/P208A/P217A/Q86G/Q94H/R138H/R169H/T345S) (assay: experimental peptide/MHC binding assay of the consensus peptides). Conditions: consensus peptides optimized for HLA-A*02:01; values below 0.5 nM are beyond the range of sensitivity of the assay; tested by co-operation partner (J. Sidney); read-out: experimental peptide/MHC binding affinity expressed as IC50.
Description: Since a validation on the basis of existing public experimental data was not possible we were able to find a co-operation partner who tested our consensus peptides for experimental peptide/MHC binding affinity.
The authors thank J. Sidney for testing the IC50 binding affinities of the consensus peptides.
With WWWFFWYVW [WWWFFWYVW] the IC50 was 45 nM.
MLWTMVFTV [MLWTMVFTV] was tested, and the IC50 was less than 0.5 nM.
For YMMEWMWYV [YMMEWMWYV], the IC50 was less than 0.5 nM.
With YLAEGLASL [YLAEGLASL] the IC50 was 1.3 nM.
Work on FLWEVTPTV [FLWEVTPTV] yielded an IC50 of 1.1 nM.
